Patent publication US4237307A, “15-Deoxy-16-hydroxy-16-methyl-Δ19-prostaglandins of the E and F series” (American Cyanamid Company, priority 1979, dated 1980)

How the values were obtained:
Assay type in all cases: in vivo, Guinea-Pigs
[1] = test system: bronchospasms elicited by intravenous injections of histamine; test: Konzett procedure: bronchodilator activity against histamine-induced bronchospasm, i.v.; conditions: Cavia porcellus; guinea pig; spasmogen histamine i.v.; three logarithmic cumulative intravenous doses
Procedure: (§1) The bronchodilator activity for representative compounds of this invention was determined in Guinea-Pigs against bronchospasms elicited by intravenous injections of serotonin, histamine, and acetylcholine, by the Konzett procedure the details of which are those discussed by J. Lulling, P Lievens, F. El Sayed and J. Prignot, Arzeimittel-Forschung 18, 995 (1968).
(§2) In the table which follows, bronchodilator activity for representative compounds of the invention against spasmogenic agents serotonin, histamine, and acetylcholine is expressed as an ED50 determined from the results obtained with three logarithmic cumulative intravenous doses.

[2] = test system: bronchospasms elicited by intravenous injections of acetylcholine; test: Konzett procedure: bronchodilator activity against acetylcholine-induced bronchospasm, i.v.; conditions: Cavia porcellus; guinea pig; spasmogen acetylcholine i.v.; three logarithmic cumulative intravenous doses
Procedure: as §1, §2

[3] = test system: bronchospasms elicited by intravenous injections of serotonin; test: Konzett procedure: bronchodilator activity against serotonin-induced bronchospasm, i.v.; conditions: Cavia porcellus; guinea pig; spasmogen serotonin i.v.; three logarithmic cumulative intravenous doses
Procedure: as §1, §2

Compound: C=CCCC(C)(O)C/C=C/[C@H]1[C@H](O)CC(=O)[C@@H]1C/C=C\CCCC(=O)O (relative stereo) [dl-11α,16-DIHYDROXY-9-OXO-16-METHYL-5-cis-13-trans-Δ^19 PROSTATRIENOIC ACID]
- ED50 [1]: 6.4 µg/kg
- ED50 [2]: 10.6 µg/kg
- ED50 [3]: 3.8 µg/kg
